In US20230140200A1, “COMPOSITIONS AND METHODS FOR DETECTING CELLS UNDERGOING FERROPTOSIS USING AN ANTIBODY” (THE TRUSTEES OF COLUMBIA UNIVERSITY IN THE CITY OF NEW YORK, priority 2020, published 2023):

Legend:
[1] = test system: HT-1080 cells; assay: Nuclear shrinkage by immunofluorescence (DAPI nuclei, CellProfiler); assay type: cell-based, human; conditions: vs DMSO
[2] = test system: HT-1080 cells; assay: Immunofluorescence staining of treated cells, quantification of membrane intensity; assay type: cell-based, human; conditions: 8 h
[3] = test system: TfR1 mRNA; assay: qPCR of TfR1 transcripts; assay type: cell-based, human; conditions: 8 h, HT-1080 cells
Protocol: HT-1080 cells were seeded in 6-well plates at a density of 400 k cells/well and incubated overnight. The following day, IKE or RSL3 were diluted into wells from stock solutions and treated for indicated time periods. Following treatment, cells were rinsed in cold PBS, trypsinized, and pelleted in Eppendorf tubes. RNA was isolated from cell pellets using Qiagen's RNeasy extraction kit, following manufacturer's instructions (Qiagen). RNA quantity and quality was evaluated by a nanodrop spectrophotometer (Thermo Fisher Scientific). cDNA was generated from 2 μg of total RNA, which was then diluted ten-fold and used as a template in qPCR reactions on a Viia7 Real-Time system. Gene specific primers were used as follows: TfR1 FW: 5′ […] 3′ (SEQ ID No: 18); TFR1 RV: 5′ […] 3′ (SEQ ID No: 19); GAPDH FW: 5′ […] 3′ (SEQ ID No: 20); GAPDH RV: 5′ […] 3′ (SEQ ID No: 21).

[4] = test system: HT-1080 cells; assay: Machine-learning training image set, TfR1 membrane fluorescence intensity; assay type: cell-based, human; conditions: fixed at 10-20% cell death
Protocol: Immunofluorescence (IF). HT-1080 cells were treated with 1 μM RSL3, 20 μM IKE, or 1 μM STS on poly-lysine-coated coverslips (Sigma Aldrich P4832) in 24-well plates. […] The cells were fixed and permeabilized with 4% PFA in PBS with 0.1% Triton X-100 (PBT), with 200 μL per well. The plates were covered with foil, and the cells were incubated and shaken at room temperature for 15-20 min. The PFA was disposed of safely, and the cells were washed with PBT three times. The cells were blocked with 5% normal goat serum (NGS) (ThermoFisher 50197Z) in PBT for 1 h at room temperature. The cells were then incubated with mouse 3F3 anti-Ferroptotic Membrane Antibody (3F3-FMA) at 1:500 dilution in PBT with 1% bovine serum albumin (BSA) and 5% NGS at 4° C. overnight. The cells were washed with PBT for 5 min three times. The cells were then incubated with goat anti-mouse IgG (H+L) Highly Cross-Adsorbed Secondary Antibody, Alexa Fluor 594 (Thermo Fisher Scientific Cat #A-11032, RRID:AB_2534091) at 1:200 dilution and FITC-phalloidin at 1:1000 dilution in PBT with 1% BSA for 1 h at room temperature. […]
Automated image analysis. […] Nuclei were detected via the DAPI signal. […] In a next step, morphology/symmetry features, texture (SER features) and intensity properties of the DAPI, FITC and red channel were calculated for each cell region (nuclei, cytoplasm, and membrane). […]

[5] = test system: OCI-LY7 cells; assay: C11-BODIPY lipid ROS flow cytometry; assay type: cell-based; conditions: 5 μM PE, 19 h at 37° C.
Protocol: 6 L of media (1% Pen-Strep 10% FBS and 89% RPMI with L-glutamine) containing 400 million OCI-LY7 (DSMZ Cat #ACC-688, RRID:CVCL_1881) cells/L were treated with 5 μM PE (piperazine erastin). Cells were incubated for 19 h at 37° C., then production of lipid ROS was confirmed using BODIPY-C11 by flow cytometry. Ferroptotic cells were pelleted in centrifuge at 1000 rpm for 10 min at 25° C. Cells were resuspended in 1 mL lysis buffer with a pan-protease inhibitor, lysed using a dounce homogenizer. 70% cell lysis was confirmed by microscope. Pellet containing the nuclear fraction and unlysed cells was obtained by centrifuge at 700×g for 10 min at 4° C. Supernatant was spun at 700×g for 10 min at 4° C. Supernatant was then transferred to a new tube and placed in centrifuge at 10,000×g for 45 min at 4° C. Pellet consisting of total membrane was resuspended in upper phase solution. Lower phase was added and mixture was incubated on ice for 5 min. Mixture was spun at 1000×g for 5 min at 4° C. […]
Cells were resuspended in […] HBSS containing 2 μM C11-BODIPY (BODIPY 581/591 C11) (Thermo Fisher Scientific, D3861) and incubated at 37° C. for 15 min. […] Fluorescence intensity was measured on the FL1 channel with gating to record live cells only (gate constructed from DMSO treatment group). A minimum of 10,000 cells were analyzed per condition. […]

[6] = test system: HT-1080 cells; assay: High-content analysis of nucleus area; assay type: cell-based, human; conditions: RSL3 group vs DMSO group
Protocol: For the screening with five technical replicates, HT-1080 cells were washed with PBS, trypsinized and resuspended in cell culture medium. The cell suspension (2,000 cells in 50 μl per well) was dispensed into collagen (Sigma-Aldrich, St. Louis, Mass., USA) pre-coated 384-well plates (PerkinElmer 384-well CellCarrierUltra™). 24 h after seeding, medium was exchanged to medium containing 0.3 μM RSL3 (1 mM stock solution) dissolved in 100% dimethyl sulfoxide (DMSO) or DMSO alone. 50 μl medium with 0.3 μM RSL3/DMSO was added per well. The cells were then incubated (37° C.; 5% CO2) for 2.5 h prior to fixation and antibody staining. […] Finally, plates were recorded using the automated Operetta® microscope with the 20× high NA objective for high-resolution images (PerkinElmer, USA). For quantification, three images of each condition were recorded using three channels (Hoechst, Alexa488, TRITC). […] Quantification on cell number, cytoplasmic intensity, nucleus intensity and spot number per cell was performed using the Columbus Software (PerkinElmer, USA).
Multiparametric image analysis was performed using Columbus Software 2.8.0 (PerkinElmer). […] In a next step we have calculated the morphology and Alexa488 fluorescence intensity in each cell region (nucleus and cytoplasm). […] Each spot was detected as a small region within the corresponding image by having a higher intensity than its surrounding area. […]

[7] = test system: HT-1080 cells; assay: Cell death after RSL3 incubation; assay type: cell-based, human; conditions: 1 μM, 4 h incubation

`O=S(=O)(NC1CCCCC1)c1ccc2c(c1)C(=NO)c1cc(S(=O)(=O)NC3CCCCC3)ccc1-2` [FIN56, ferroptosis inducer 56, reference compound] was tested, and the “nuclei shrank (mean nucleus area)” value ([1]; 10 μM, 8 h incubation) was 17% and the “change of 3F3-FMA staining pattern caused by inducer” value (“change” for short) ([2]; 10 μM) was “same changes of 3F3-FMA pattern were observed”.

In the case of `CC1(CCO)CC2(CCC(C(C)(C)C)CC2)OO1` (stereo not drawn) [FINO2, ferroptosis inducer endoperoxide, reference compound], the “nuclei shrank (mean nucleus area)” value ([1]; 15 μM, 8 h incubation) is reported as 49% and the “change” value ([2]; 15 μM) is reported as “same changes of 3F3-FMA pattern were observed”.

For `CC(C)Oc1ccc(C(=O)Cn2ccnc2)cc1-n1c(CN2CCN(C(=O)COc3ccc(Cl)cc3)CC2)nc2ccccc2c1=O` [IKE, imidazole ketone erastin], the “nuclei shrank (mean nucleus area)” value ([1]; 10 μM, 8 h incubation) was 12%, the “change” value ([2]; 10 μM) was “same changes of 3F3-FMA pattern were observed” and the “level of TfR1 mRNAs” value ([3]; 10 μM) was “didn't increase”. For the same compound, the “TfR1 membrane fluorescence intensity after treatment” value ([4]; 20 μM) was “significant increase”.

With `CC(C)Oc1ccc(CN2CCNCC2)cc1-n1c(CN2CCN(C(=O)COc3ccc(Cl)cc3)CC2)nc2ccccc2c1=O` [PE, piperazine erastin] the “lipid peroxides (C11-BODIPY fluorescence)” value [5] was “increase in lipid peroxides”.

`COC(=O)c1ccc([C@@H]2c3[nH]c4ccccc4c3C[C@@H](C(=O)OC)N2C(=O)CCl)cc1` [RSL3, (1S, 3R)-RSL3] was tested, and the “nuclei shrank (mean nucleus area)” value ([1]; 1 μM, 4 h incubation) was 27%, the “decrease of average nucleus area” value [6] was 17% and the HT-1080 cells died [7] was 30%. The “level of TfR1 mRNAs” value ([3]; 1 μM) was “didn't increase” and the “TfR1 membrane fluorescence intensity after treatment” value ([4]; 1 μM) was “significant increase”.

For `CC(C)(C)OO` [tBuOOH, reference compound], the “change” value ([2]; 100 μM) was “same changes of 3F3-FMA pattern were observed”.
